US20060063198A1, “Diagnostic marker” (priority 2004, published 2006)
No end group written: not given here. *: point of attachment. For = O=C*

Assays:
human neutrophils = assay: Neutrophil chemotaxis in a modified Boyden chamber assay; format: cell-based; conditions: synthetic peptides, fMLP as comparator
Procedure: Serum and plasma samples were collected from six female healthy volunteers aged 20-29, and ten ACS patients. Clinical diagnosis of the ten ACS patients indicated one unstable angina patient and 9 patients with acute myocardial infarction (AMI). The unstable angina patient arrived to the Emergency Department 30.5 hours after symptoms onset. Seven of the nine AMI patients presented to the Emergency Department within 1.5-3.5 hours after onset of chest pain. The other two AMI patients arrived 10 hours and 24 hours after symptoms onset. Blood samples were collected upon arrival of the patient, centrifuged and stored at −70° C. for up to 21 days. Serum and plasma samples were tested for neutrophil chemotactic activity using a modified Boyden chamber technique and human neutrophils as indicator cells (see, for example, Elgebaly, S. A., et al. J. Mol. Cell. Cardiol. 21:585-593, 1989; and Elgebaly, S. A., et al. Am. J. Pathol. 137:1233-1241, 1990, each of which is incorporated by reference in its entirety).
Samples were also fractionated using high performance liquid chromatography (HPLC) and a size exclusion column (1-300 kDa). The 5 kDa and lower molecular weight fractions were collected and assayed for neutrophil chemotactic activity. The standard synthetic chemoattractant fMet-Leu-Phe (f-MLP) was used as the positive control for 100% chemotactic response. Hank's Balanced Salt Solution (HBSS) was the negative control for random migration. Neutrophil migration was reported as chemotactic index of counted cells trapped within 10-micron membrane layer. The average of three readings were calculated for each filter. [formula]
(§1) A synthetic peptide having the sequence: N-formyl-[…] Synthetic peptides of sequence: MIINHNLAAINSHR (i.e., unmodified peptide 3) and of sequence: […]

neutrophils = assay: Chemotactic activity retained after overnight refrigeration; format: cell-based; conditions: unlike fMLP
Source text: as §1

| Substance | chemotaxis of neutrophils (human neutrophils) | chemotactic activity when refrigerated overnight (neutrophils) |
| --- | --- | --- |
| MIINHNLAAINSHR [sequence 3] | promoted chemotaxis to a lesser degree |  |
| N-formyl-MNTRAMNDASGR (For-MNTRAMNDASGR) [N-formyl-5] | promote chemotaxis to a lesser degree than fMLP |  |
| N-formyl-MIINHNLAAINSHRSPGADGNGGEAMPGGGK (For-MIINHNLAAINSHRSPGADGNGGEAMPGGGK) [N-formyl-3+9+K] | promoted strong chemotaxis | retained chemotactic activity |
| SPGADGNGGEAMPGGG [sequence 9] | no chemotactic activity |  |
| N-formyl-MENHK [N-formyl-7] | promote chemotaxis to a lesser degree than fMLP |  |
| N-formyl-MIINHNLAAINSHR (For-MIINHNLAAINSHR) [N-formyl-3] | promoted strong chemotaxis | retained chemotactic activity |
| MIINHNLAAINSHRSPGADGNGGEAMPGGG [3+9] | promoted chemotaxis to a lesser degree | retained chemotactic activity |
